From patent US4348404A, “Antiinflammatory 4,5-diaryl-α-polyfluoroalkyl-1H-imidazole-2-methanamines” (E. I. Du Pont de Nemours and Company, priority 1981, dated 1982)
Where two headings read alike, the source gives them in different places.

Tested on: adjuvant-induced arthritis in rats
Experiment: Established Adjuvant-Induced Arthritis in Rats
Assay type: in vivo, Lewis (Wistar) male rats
Settings: for ED50: read-out: Adjuvant Arthritis ED50; for percent paw volume reduction at the indicated dose: oral gavage once daily for 7 days
[1] = rat, oral gavage once daily for 7 days (days 14-20), decrease from control paw volume, uninjected left hind paw, day 21, estimated from dose-response regression lines by inspection

Row | Structure (SMILES) | ED50 [1] [mg/kg] | other results
1 | NC(c1nc(-c2ccc(Cl)cc2)c(-c2ccc(Cl)cc2)[nH]1)(C(F)(F)F)C(F)(F)F [Example 8] |  | ED50 (Rattus norvegicus, po): 7 mg/kg
2 | NC(c1nc(-c2ccccc2)c(-c2ccccc2)[nH]1)(C(F)(F)F)C(F)(F)F [Example 9] | 8 | 
3 | COc1ccc(-c2nc(C(N)(C(F)(F)F)C(F)(F)F)n(C)c2-c2ccc(OC)cc2)cc1 [Example 5] |  | percent paw volume reduction at the indicated dose (rat, @ 50 mg/kg): -27%
4 | NC(c1nc(-c2ccc(F)cc2)c(-c2ccc(F)cc2)[nH]1)(C(F)(F)F)C(F)(F)F [Example 4, 4,5-bis(4-fluorophenyl)-α,α-di(trifluoromethyl)-1H-imidazole-2-methanamine] | 1.7 | 
5 | Cn1c(C(N)(C(F)(F)F)C(F)(F)F)nc(-c2ccc(F)cc2)c1-c1ccc(F)cc1 [Example 6, 4,5-bis(4-fluorophenyl)-1-methyl-α,α-di(trifluoromethyl)-1H-imidazole-2-methanamine] | 3.4 | 
6 | NC(c1nc(-c2ccc(F)cc2)c(-c2ccc(F)cc2)[nH]1)C(F)(F)F (stereo not drawn) [Example 2, 4,5-Bis(4-fluorophenyl)-α-trifluoromethyl-1H-imidazole-2-methanamine] | 19 | 
7 | CNC(c1nc(-c2ccc(F)cc2)c(-c2ccc(F)cc2)n1C)(C(F)(F)F)C(F)(F)F [Example 3, 4,5-Bis-(4-fluorophenyl)-N,1-dimethyl-α,α-di(trifluoromethyl)-1H-imidazole-2-methanamine] |  | percent paw volume reduction at the indicated dose (rat, @ 25 mg/kg): -41%
8 | Cc1ccc(-c2nc(C(N)(C(F)(F)F)C(F)(F)F)[nH]c2-c2ccc(C)cc2)cc1 [Example 7] | 5.4 | 
9 | COc1ccc(-c2nc(C(N)(C(F)(F)F)C(F)(F)F)[nH]c2-c2ccc(OC)cc2)cc1 [Example 1, 4,5-Bis(4-methoxyphenyl)-α,α-di(trifluoromethyl)-1H-imidazole-2-methanamine] | 2 | 
